Assay results taken from US20080057136A1, “Disinfecting Composition and Methods of Making and Using Same” (priority 2003, published 2008).
In brackets after ≈: the same amount, converted by molar mass. Read-outs that look alike come from different tables or passages of the source.

Tests used:
dermatophyte infections = dermatophyte infections in animals; cited from earlier work
[1] = Acute inhalation toxicity, rat; conditions: rat, in vivo, inhaled
S. pyogenes ATCC 19615 = experiment: NCCLS broth microdilution MIC and MBC (Example 10); format: cell-based, Streptococcus pyogenes
Procedure: (§4) Strains of E. coli (ATCC 11229), D. aeruginosa (ATCC 15442), S. aureus (ATCC 25923), S. epidermidis (ATCC 12228), S. pyogenes (ATCC 19615), C. albicans (ATCC 10231), and T. rubrum (ATCC 28188) were used as “challenge microorganisms” in this study. Strains were removed from frozen stock and subcultured twice on blood agar to ensure that the strains had optimal growth and metabolic status before testing.
(§5) Hibiclens (industry comparator) and ciprofloxacin were added to the bacterial panel. Amphotericin B, fluconazole, and Hibiclens were added as comparative agents in the fungal panels.
(§6) For testing purposes, AMC, AMC components, and Hibiclens were diluted to 50% of the working solution to cover the proposed AMC use dilution of 20%.
(§7) Microtiter panels were created on the day of MIC testing. A 50 μl aliquot of Mueller-Hinton broth (for bacterial strains) or RPMI 1640 (for fungal strains) was delivered to each well, except those in column one of the microtiter panel. The working solution of AMC and each of its components, and comparative agents were delivered to the designated wells in column one. AMC, components, and comparators were serially diluted across the panel. A 50 μl aliquot of bacterial or fungal suspension was then added to each well on the microtiter panel, using a new pipette tip for each aliquot. Panels were incubated at 35° C. for 16-20 h for the E. coli, P. aeruginosa, and S. aureus strains, 20-24 h for the S. pyogenes strain, and 48 h for the C. albicans strain.
(§8) The 10 μl samples were plated on to blood agar and incubated at 35° C. for 24 h (E. coli and P. aeruginosa) or 48 h (S. aureus, S. epidermidis, and S. pyogenes). After incubation, colony counts for each panel well plated were recorded.
(§9) The MIC % is expressed as g/100 ml or ml/100 ml. […] The MBC % is expressed as g/100 ml or ml/100 ml.

Acute oral toxicity, rat = conditions: rat, in vivo, po
[2] = test system: Trichophyton rubrum (ATCC 28188); experiment: Time-Kill test (Example 9); format: cell-based; conditions: Table 25, first value column
Procedure: A panel of “challenge microorganisms,” including select bacteria, yeast, and fungi was used to assess the disinfecting properties of test compounds, e.g., AMC (DPT Laboratories). […] The procedure was based on the ASTM procedure entitled, “Standard Test Method for the Assessment of Microbial Activity of Test Materials Using Time-Kill Procedure.”
A single lot of test material was prepared at various concentrations, along with multiple compounds prepared in various concentrations and combinations. These test materials were tested in duplicate against various bacteria, yeast and fungi. To minimize potential buffer interference and to minimize reduction of antimicrobial activity, the volume of the inoculum added to the test material was maintained at, or below, 1% of the total volume of the test. Samples were removed at various contact times. Serial dilutions were performed, and duplicate aliquots were plated. The plates were then incubated, and the average colony forming units (CFU) recovered per milliliter were determined for each contact time. The contact times for the test compounds with S. aureus, E. coli, P. aeruginosa, and C. albicans were 30 sec, 1 min, and 5 min. The contact times for the test compounds with B. subtilis were 1 and 10 min, 1 h, 2 h, 3 h, and 24 h. The contact times for the test compounds with T. rubrum were 30 sec, 1 min and 10 min. The contact temperature was ambient room temperature (20-21° C.).
The fungus, T. rubrum, was inoculated onto Emmon's agar (EA) and incubated at 25-30° C. for 10-15 days. The mycelial mats from mature cultures were removed from the surface of at least 5 plates and macerated with sterile saline (SS) in a sterile glass tissue grinder. The suspension was filtered through sterile glass wool to remove the hyphae.
The density of the conidial suspension was determined by serially diluting the prepared culture in BPDW. Aliquots from selected dilutions were plated on duplicate EA plates. The plates were incubated for 3-5 days at 25-30° C. and then each plate was examined for enumeration.
The suspension was stored at 2-10° C. for 4 weeks before use. On the day of testing, the suspension was adjusted to yield approximately 5.0×10^8 CFU by dilution with BPDW.
Compliant with the ASTM procedure cited above, the challenge microorganism was added to the test material by dispensing 99 ml of the test material into two sterile flasks, each containing a stir bar. The reaction flasks were allowed to equilibrate to the test temperature for at least 10 minutes. The flasks were placed in water baths on stir plates and maintained at the test temperature with stirring. A 1 ml aliquot of the prepared inoculum of the challenge microorganism was added to each flask to begin the contact period. At each contact time, 1 ml aliquot samples were removed and added to tubes containing 9 ml PBDW+. Serial 10-fold dilutions of each sample were then prepared in PBDW dilution blanks. Duplicate aliquots from selected dilutions were plated using the appropriate agar.
Upon completion of all contact periods, all plates were inverted and incubated for the appropriate time and temperature as follows: bacteria and yeast were incubated over 2 nights at 37° C.±2° C., and the fungus was incubated for at least 5 nights at 25-30° C. Following incubation, all plates were removed, the colonies were counted and the CFU recovered per ml at each contact time were calculated.

[3] = test system: S. epidermidis ATCC 12228; experiment: NCCLS broth microdilution MIC and MBC (Example 10); format: cell-based, Staphylococcus epidermidis
Procedure: as §4, §5, §6, §7, §8, §9

T. rubrum ATCC 28188 [4] = experiment: NCCLS broth microdilution MIC and MFC (Example 10); format: cell-based, Trichophyton rubrum
Procedure: as §4
(§10) Amphotericin B, fluconazole, and Hibiclens were added as comparative agents in the fungal panels.
as §6
(§11) Microtiter panels were created on the day of MIC testing. A 50 μl aliquot of Mueller-Hinton broth (for bacterial strains) or RPMI 1640 (for fungal strains) was delivered to each well, except those in column one of the microtiter panel. The working solution of AMC and each of its components, and comparative agents were delivered to the designated wells in column one. AMC, components, and comparators were serially diluted across the panel. A 50 μl aliquot of bacterial or fungal suspension was then added to each well on the microtiter panel, using a new pipette tip for each aliquot. Panels were incubated at 35° C. for 16-20 h for the E. coli, P. aeruginosa, and S. aureus strains, 20-24 h for the S. pyogenes strain, and 48 h for the C. albicans strain. T. rubrum panels were incubated for 3 to 4 days before MICs were read. […] Fungal MICs (%) were read using an 80% reduction in the growth endpoint relative to the turbidity of the growth control for AMC, its components, and fluconazole. For amphotericin B, the endpoint was read as the complete inhibition of growth.
(§12) MFCs were determined in a similar manner.
(§13) The endpoint for amphotericin B was read as complete inhibition of growth. The MIC % is expressed as g/100 ml or ml/100 ml. […] The MFC % is expressed as g/100 ml or ml/100 ml.

[5] = component at 100%; cited from earlier work
T. rubrum ATCC 28188 [6] = experiment: NCCLS broth microdilution MIC and MFC (Example 11); format: cell-based, Trichophyton rubrum
Procedure: (§14) Strains of C. albicans (ATCC 10231) and T. rubrum (ATCC 28188) were tested in this study. Strains were removed from frozen stock and subcultured twice on blood agar to ensure that the strains had optimal growth and metabolic status before testing. Strains were tested by NCCLS broth microdilution (M27-A2, 2002) and challenged with AMC solution and its individual components […] ), and isopropanol. Amphotericin B, fluconazole, terbinafine, and Hibiclens were added as comparator compounds. […] Microtiter panels were created on the day of MIC testing. A 50 μl aliquot of RPMI 1640 was delivered to each well except those in column one of the microtiter panel. The working solution of AMC and each of its components, and comparative agents were delivered to the designated wells in column one; AMC, components, and comparators were serially diluted across the panel. A 50 μl aliquot of fungal suspension was then added to each well on the microtiter panel, using a new pipette tip for each aliquot. […] For amphotericin B, the endpoint was read as the complete inhibition of growth. […] MFCs were performed to determine the concentration at which ≧99% of the starting fungal inoculum was killed. […] After incubation, colony counts for each panel well plated were recorded. […] The endpoint for amphotericin B was read as complete inhibition of growth.

[7] = component at 100%; cited from earlier work; remark: listed apart in the source
[8] = test system: Staphylococcus aureus (ATCC 25923); experiment: Time-Kill test (Example 9); format: cell-based; conditions: Study 509-101; at 30 seconds
Procedure: A panel of “challenge microorganisms,” including select bacteria, yeast, and fungi was used to assess the disinfecting properties of test compounds, e.g., AMC (DPT Laboratories). Specifically, the disinfectant property of test compounds were tested against Staphylococcus aureus (ATCC 25923); Staphylococcus epidermidis (ATCC 12228); Bacillus subtilis (ATCC 19659); Escherichia coli (ATCC 11229); and Pseudomonas aeruginosa (ATCC 15442) bacteria, as well as the yeast Candida albicans (ATCC 10231), and the fungus Trichophyton rubrum (ATCC 28188). The test procedure incorporated the recommendations described in the “Manual of Clinical Microbiology,” 5th ed., edited by A. B. Balows et al., ASM, Washington, as directed by the Federal Register, June 1994. […]
A single lot of test material was prepared at various concentrations, along with multiple compounds prepared in various concentrations and combinations. […] The plates were then incubated, and the average colony forming units (CFU) recovered per milliliter were determined for each contact time. […]
Bacteria and C. albicans from stock cultures were transferred into trypticase soya broth (TSB) and incubated for 18-24 hours at 37° C.±2° C. […] The microbe concentration was measured using a spectrophotometric technique well-known in the art. […]

S. aureus ATCC 25923 = experiment: NCCLS broth microdilution MIC and MBC (Example 10); format: cell-based, Staphylococcus aureus
Procedure: as §4, §5, §6, §7, §8, §9

[9] = Acute dermal toxicity, rabbit; conditions: rabbit, in vivo, topical or ocular
P. aeruginosa ATCC 15442 = experiment: NCCLS broth microdilution MIC and MBC (Example 10); format: cell-based, Pseudomonas aeruginosa
Procedure: as §4, §5, §6, §7, §8, §9

E. coli ATCC 11229 = experiment: NCCLS broth microdilution MIC and MBC (Example 10); format: cell-based, Escherichia coli
Procedure: as §4, §5, §6, §7, §8, §9

C. albicans = experiment: MIC and MBC determination by doubling dilutions (Study 509-102); format: cell-based; conditions: Candida albicans, Inoculum Counts: 6.6 × 10^5
Description: (§1) Table 2 below indicates the stock dilutions for each test agent, and a breakdown of the resulting concentrations for each of the doubling dilutions performed is summarized in Table 3.
(§2) From the stock dilutions, an initial 1:10 dilution was made (representing tube 1), followed by doubling dilutions (tubes 2-12), as detailed in Table 3.

Staphylococcus aureus = experiment: as above; format: cell-based; conditions: Inoculum Counts: 7.5 × 10^6
Description: as §1, §2

Escherichia coli = experiment: as above; format: cell-based; conditions: Inoculum Counts: 9.4 × 10^5
Description: as §1, §2

S. pyogenes = experiment: as above; format: cell-based; conditions: Streptococcus pyogenes, Inoculum Counts: 9.8 × 10^5
Description: as §1, §2

Pseudomonas aeruginosa = experiment: as above; format: cell-based; conditions: Inoculum Counts: 8.8 × 10^5
Description: as §1, §2

S. epidermidis = experiment: as above; format: cell-based; conditions: Staphylococcus epidermidis, Inoculum Counts: 9.0 × 10^5
Description: as §1, §2

T. rubrum = experiment: as above; format: cell-based, Trichophyton rubrum; conditions: Trichophyton rubrum; Study 509-102; Inoculum Counts: 3.6 × 10^8
Description: as §1, §2

E. coli (strain 1257) = experiment: Time-kill test, initial studies (death time); format: cell-based, Escherichia coli
Description: (§3) Time-kill tests were used to measure the disinfecting property of test compounds, e.g., microbiocidal or sporicidal compositions, using select bacterial challenge microorganisms such as the vegetative forms of, e.g., E. coli (strain 1257) S. aureus (strain 906), and Bacillus cereus (strain 96).

C. albicans ATCC 10231 [10] = experiment: NCCLS broth microdilution MIC and MFC (Example 10); format: cell-based, Candida albicans
Procedure: as §4, §10, §6, §11, §12, §13

S. aureus (strain 906) = experiment: Time-kill test, initial studies (death time); format: cell-based, Staphylococcus aureus
Description: as §3

C. albicans ATCC 10231 [11] = experiment: NCCLS broth microdilution MIC and MFC (Example 11); format: cell-based, Candida albicans
Procedure: as §14

[12] = Example 10, % as g/100 ml or ml/100 ml
[13] = Example 10, 99.9% inhibition of growth
[14] = Example 10, MBC within one doubling dilution of the MIC
[15] = 80% reduction in growth endpoint

CC(C)N1CCN(c2ccc(N3CCN(c4ccc(OC[C@H]5OC[C@](Cn6cncn6)(c6ccc(F)cc6F)O5)cc4)CC3)cc2)C1=O [Azoline]
activity relative to itraconazole (dermatophyte infections): 5 times

CCCCCCCCCCCCCCCC[n+]1ccccc1 [CPC, Cetyl Pyridinium Chloride]
LC50 [1]: 9 µg/mL
MBC, % (S. pyogenes ATCC 19615; [12]): <=0.0007%
MBC (S. pyogenes ATCC 19615; Streptococcus pyogenes, ATCC19615): ≤ 7 µg/mL
LD50 (Acute oral toxicity, rat): 20000 mg/kg
30-Second Log Reduction from Initial T. rubrum CFU Values [2]: 3.4 Logs
MCB (μg/ml) [3]: (<=7) μg/ml
MCB, % ([3]; % as g/100 ml or ml/100 ml): <=0.0007%
MFC, % (T. rubrum ATCC 28188 [4]; [13]): ≤ 0.0007%
MFC (T. rubrum ATCC 28188 [4]; Trichophyton rubrum, ATCC28188): ≤ 7 µg/mL
Rat Inhalation LC50 [5]: 0.090 mg/L
MFC, % (T. rubrum ATCC 28188 [6]; Example 11): ≤ 0.0007%
MFC (T. rubrum ATCC 28188 [6]; Trichophyton rubrum, ATCC28188): ≤ 7 µg/mL
Rabbit Dermal LD50 [7]: >2,000 mg/Kg
reduction of S. aureus count [8]: 2 log10
MBC, % (S. aureus ATCC 25923; [12]): <=0.0007%
MBC (S. aureus ATCC 25923; Staphylococcus aureus, ATCC25923): ≤ 7 µg/mL
LD50 [9]: > 20000 mg/kg
MBC, % (P. aeruginosa ATCC 15442; [12]): 0.04%
MBC (P. aeruginosa ATCC 15442; Pseudomonas aeruginosa, ATCC15442): 400 µg/mL

O=C(O)c1cn(C2CC2)c2cc(N3CCNCC3)c(F)cc2c1=O [Ciprofloxacin]
MIC (E. coli ATCC 11229; Escherichia coli, ATCC11229): ≤ 0.03 µg/mL
MIC (S. pyogenes ATCC 19615; Streptococcus pyogenes, ATCC19615, Example 10): 0.5 µg/mL (≈ 1.51 µM)
MBC (S. pyogenes ATCC 19615; Streptococcus pyogenes, ATCC19615, Example 10, read-out: MBC): 0.5 µg/mL (≈ 1.51 µM)
MBC (C. albicans): > 0.1 µg/mL
MIC (C. albicans): > 0.1 µg/mL
MBC (Staphylococcus aureus): > 0.1 µg/mL
MIC (Staphylococcus aureus): > 0.1 µg/mL
MBC (Escherichia coli): > 0.1 µg/mL
MIC (Escherichia coli): > 0.1 µg/mL
MBC (S. pyogenes): > 0.1 µg/mL
MIC (S. pyogenes): > 0.1 µg/mL
MBC (Pseudomonas aeruginosa): > 0.1 µg/mL
MIC (Pseudomonas aeruginosa): > 0.1 µg/mL
MBC (S. epidermidis): > 0.1 µg/mL
MIC (S. epidermidis): > 0.1 µg/mL
MCB [3]: 0.25 µg/mL
bactericidal activity ([3]; MBC within one doubling dilution of the MIC): bactericidal activity
MIC ([3]; Staphylococcus epidermidis, ATCC12228): 0.25 µg/mL (≈ 0.754 µM)
bactericidal activity (S. aureus ATCC 25923; [14]): bactericidal activity
MIC (S. aureus ATCC 25923; Staphylococcus aureus, ATCC25923, Example 10): 0.5 µg/mL (≈ 1.51 µM)
MBC (S. aureus ATCC 25923; Staphylococcus aureus, ATCC25923, Example 10, read-out: MBC): 0.5 µg/mL (≈ 1.51 µM)
MBC (T. rubrum): > 0.1 µg/mL
MIC (T. rubrum): > 0.1 µg/mL
MIC (P. aeruginosa ATCC 15442; Pseudomonas aeruginosa, ATCC15442, Example 10): 0.12 µg/mL (≈ 0.362 µM)
MBC (P. aeruginosa ATCC 15442; Pseudomonas aeruginosa, ATCC15442, Example 10, read-out: MBC): 0.5 µg/mL (≈ 1.51 µM)

O=C(O)CN(CCN(CC(=O)O)CC(=O)O)CC(=O)O.[Zn] [ZnEDTA, ethylenediaminotetraacetate zinc complex]
Death time of test-microorganisms (min) E. coli (E. coli (strain 1257); Conc. 0.1 %): >30 min
Death time of test-microorganisms (min) E. coli (E. coli (strain 1257); Conc. 5.0 %): >30 min
MIC, % (E. coli ATCC 11229; % as g/100 ml or ml/100 ml): 2%
MBC (μg/ml) (S. pyogenes ATCC 19615; Example 10): (13000) μg/ml
MBC, % (S. pyogenes ATCC 19615; [12]): 1.3%
MIC, % (S. pyogenes ATCC 19615; [12]): 1.3%
MCB (μg/ml) [3]: (>25000) μg/ml
MCB, % ([3]; % as g/100 ml or ml/100 ml): >2.5%
MIC, % ([3]; % as g/100 ml or ml/100 ml): 1.3%
MIC, % (C. albicans ATCC 10231 [10]; [15]): 0.15%
MIC (C. albicans ATCC 10231 [10]; 80% reduction in growth, amphotericin B complete inhibition): 1500 µg/mL
MFC (C. albicans ATCC 10231 [10]; 99.9% inhibition of growth): 1500 µg/mL
MFC, % (C. albicans ATCC 10231 [10]; 99.9% inhibition of growth): 0.15%
fungicidal activity (C. albicans ATCC 10231 [10]; MFC within 1 doubling dilution of the MIC): Fungal activity
MIC, % (T. rubrum ATCC 28188 [4]; Example 10, 80% reduction in growth endpoint): 0.08%
MIC (T. rubrum ATCC 28188 [4]; Example 10, 80% reduction in growth, amphotericin B complete inhibition): 800 µg/mL
MFC (T. rubrum ATCC 28188 [4]; [13]): 3000 µg/mL
MFC, % (T. rubrum ATCC 28188 [4]; [13]): 0.3%
fungicidal activity (T. rubrum ATCC 28188 [4]; Example 10, MFC within 1 doubling dilution of the MIC): did not demonstrate fungicidal activity
MFC (T. rubrum ATCC 28188 [6]; Example 11): 6000 µg/mL
MFC, % (T. rubrum ATCC 28188 [6]; Example 11): 0.6%
MIC, % (T. rubrum ATCC 28188 [6]; Example 11, 80% reduction in growth endpoint): 0.04%
MIC (T. rubrum ATCC 28188 [6]; Example 11, 80% reduction in growth, amphotericin B complete inhibition): 400 µg/mL
fungicidal activity (T. rubrum ATCC 28188 [6]; Example 11, MFC within 1 doubling dilution of the MIC): did not demonstrate fungicidal activity
reduction of S. aureus count [8]: ineffective
MBC (μg/ml) (S. aureus ATCC 25923; Example 10): (>25000) μg/ml
MBC, % (S. aureus ATCC 25923; [12]): >2.5%
MIC, % (S. aureus ATCC 25923; [12]): 1.3%
Death time of test-microorganisms (min) S. aureus (S. aureus (strain 906); Conc. 0.1 %): >30 min
Death time of test-microorganisms (min) S. aureus (S. aureus (strain 906); Conc. 5.0 %): >30 min
MFC (C. albicans ATCC 10231 [11]): 13 mg/mL
MFC, % (C. albicans ATCC 10231 [11]): 1.3%
MIC, % (C. albicans ATCC 10231 [11]; [15]): 0.08%
MIC (C. albicans ATCC 10231 [11]; 80% reduction in growth, amphotericin B complete inhibition, terbinafine 50%/90%): 800 µg/mL
MBC (P. aeruginosa ATCC 15442; Example 10): 80000 µg/mL
MBC, % (P. aeruginosa ATCC 15442; [12]): 8%
MIC, % (P. aeruginosa ATCC 15442; [12]): 2%
bactericidal activity (P. aeruginosa ATCC 15442; [14]): did not meet the definition of bactericidal
